Laboratory results taken from PubChem BioAssay (NCI).
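Cells were grown in 96-well plates and exposed to each compound for 48 hours at five concentrations; endpoints were interpolated linearly between bracketing concentrations, or set to the highest concentration if not reached. TGI is the concentration that stops growth completely.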 Where a SMILES comes first, the peptide text is derived from it. Bridges are numbered along the chain shown (N, C = ends). [ ]: non-standard residue; d: D form. The star is where a group is joined. PhAc = O=C(Cc1ccccc1)*

What was measured:
Assay in all cases: NCI-60 cell line screen, 48 h
[1] = test system: MDA-N
[2] = test system: OVCAR-5 ovarian
[3] = test system: DMS 273 small cell lung
[4] = test system: DLD-1 colon
[5] = test system: SNB-78 CNS
[6] = test system: LXFL 529 NSCLC
[7] = test system: HOP-18 NSCLC
[8] = test system: M19-MEL melanoma
[9] = test system: DMS 114 small cell lung
[10] = test system: KM20L2 colon
[11] = test system: XF 498 CNS

SMILES	TGI [1] [µM]	TGI [2] [µM]	other results
c1ccc(N=C(N2CCOCC2)N(CCN2CCOCC2)c2ccccc2)cc1	> 100		
COc1ccc(C2=Nn3c(nc4sc(C)c(C)c4c3=O)SC2)cc1	> 100	> 100	
CC(=O)OCc1ccc2oc(=O)c(C(=O)Oc3cccc(Cl)c3)cc2c1	> 100	> 100	
O=Nc1c(-c2c(O)[nH]c3ccccc23)[nH]c2ccccc12	> 47.4	> 86.4	
Cc1cc(=O)oc2cc(SC(=O)N(C)C)ccc12	> 100	> 100	
CC(C)/C(Cl)=N/OC(=O)Nc1cccc(C(F)(F)F)c1	23.7	34	
Cc1c(C#N)c(N)[nH]c(=S)c1C#N	> 100	> 100	
CC(C)(Br)C(Br)CCC(=CCBr)CBr (mixture of isomers)	4.68	37.2	TGI [3]: 3.51 µM; TGI [4]: 11.2 µM; TGI [5]: 17.1 µM; TGI [6]: 11.6 µM; TGI [7]: 31.9 µM; TGI [8]: 4.2 µM
NC1OC(COC(=O)c2ccccc2)C(O)C(OC(=O)c2ccccc2)C1OC(=O)c1ccccc1 (stereo not drawn)	46.5	48.1	
Cc1n[n+](CC(=O)c2ccccc2)c2sc(N)nn12	> 100	> 100	
COc1cccc(C(=O)Nc2c3ccccc3nc3ccccc23)c1OC	> 100	> 100	
CCOc1cc2ccc3c4cc(OC)c(OC)cc4cnc3c2cc1OCC		> 100	TGI [9]: > 100 µM; TGI [10]: > 100 µM; TGI [4]: > 100 µM; TGI [11]: > 100 µM; TGI [5]: > 100 µM; TGI [6]: > 100 µM; TGI [7]: > 100 µM; TGI [8]: > 100 µM
O=C(Nc1cc2c(=O)[nH]c3ccccc3c2oc1=O)c1cnccn1	> 100	> 100	
O=C(/C=C/c1ccc(O)c(O)c1)OCc1ccccc1	> 100	> 100	
NC(=O)NC(=O)CCC(NS(=O)(=O)c1ccccc1)C(=O)NC(N)=O (stereo not drawn)	> 100	> 100	
Cc1ccc2nc(N/N=C/c3ccc(C)s3)cc(C)c2c1	20.4	22	
CCCCOCn1c(=O)[nH]c(=O)c2ccccc21	> 100	> 100	
COc1ccc(/C=N/N=C(\N)NO)c(Cl)c1O		6.86	TGI [9]: > 100 µM; TGI [4]: > 100 µM; TGI [5]: > 100 µM; TGI [6]: > 100 µM; TGI [7]: 54.2 µM; TGI [8]: 53.3 µM
O=C1OC2C(O)COC2(O)C1(O)C(C[N+](=O)[O-])c1ccc(Cl)cc1 (stereo not drawn)	6.98	32.6	TGI [3]: 9.87 µM; TGI [9]: 9.99 µM; TGI [10]: 6.17 µM; TGI [4]: 3.93 µM; TGI [5]: 71.6 µM; TGI [6]: 4.07 µM; TGI [7]: 21.6 µM; TGI [8]: 6.84 µM
O=C(NCCc1ccccc1)[C@H]1CCCC[C@@H]1CCO	> 100	> 100	
O=C1CCCC2=C1CC1=C(CCCC1=O)N2c1ccccc1C(=O)O		> 100	

SMILES	TGI [1] [µM]	TGI [2] [µM]	other results
CCOC(=O)N1CC2(C)C=CC1C(C(=O)OC)C2 (stereo not drawn)	> 100	> 100	
O=C(Cc1ccccc1)N[C@@H]1COC(=O)[C@@H]2CCCN2C(=O)[C@@H]2CCCN2C1=O (PhAc-[dS]-Pro-Pro; ester 1-C)	> 100	> 100	
N=c1oc2c(Br)cc(Br)cc2cc1C(=O)Nc1ccccn1	> 100	> 100	
C1=Nc2ccc(cc2)N=Cc2ccccc2OCc2cccc(n2)COc2ccccc21	> 100	> 100	
CC1=CC=C2c3ccccc3C=CN2C(=O)C1	> 100	> 100	
CCC(=O)C1(N2CCOCC2)CCN(CCCC(=O)c2ccc(F)cc2)CC1	> 100	> 100	
Cc1ccc(/C=N/Nc2nc3ccccc3s2)s1	> 100	> 100	
CC(=O)OCC1OC(n2c(C#N)cc(=O)[nH]c2=O)CC1OC(C)=O (stereo not drawn)	> 100	> 100	
O=c1cc(-c2ccccc2)oc2cc(OCC(O)COc3ccc4c(=O)cc(-c5ccccc5)oc4c3)ccc12		> 100	TGI [3]: > 100 µM; TGI [9]: > 100 µM; TGI [10]: > 100 µM; TGI [4]: > 100 µM; TGI [11]: 48.1 µM; TGI [5]: 58.9 µM; TGI [6]: > 100 µM; TGI [7]: > 100 µM; TGI [8]: > 100 µM
CC1C(=NO)C(C)C(c2ccccc2)N(N=O)C1c1ccccc1 (stereo not drawn)	36.3		
Oc1cccc(-c2ccc3c4c2O[C@H]2c5[nH]c6ccccc6c5C[C@@]5(O)[C@@H](C3)N(CC3CC3)CC[C@]425)c1	3.05	4.3	
CC1=C(C)CC(C#N)(C#N)C(C#N)(C#N)C1	> 7.22	> 10	
CCc1n[nH]c(=O)n1N1C(=O)CCC1=O	> 100	> 100	
CC(C)C1C(=O)NC(CO)Cc2c[nH]c3c(C(c4c[nH]c5ccccc45)C(O)CO)ccc(c23)N1C (stereo not drawn)			TGI [3]: > 100 µM; TGI [4]: > 100 µM; TGI [11]: > 100 µM; TGI [5]: > 100 µM; TGI [6]: > 100 µM; TGI [7]: > 100 µM; TGI [8]: > 100 µM
Cc1ccc2c3c(cnc2n1)C(=O)OCCN3C	> 100	> 100	
CC(C)(C)N1C(=O)c2ccccc2C1(O)C(F)(F)F (stereo not drawn)	> 100	> 100	
C=C1[C@H](OC(=O)C(C)C)[C@@H](OC(C)=O)[C@@H](OC(C)=O)C(C)(C)[C@@H]2O[C@H]2[C@@H](C)C(=O)[C@@]2(OC(C)=O)C[C@@](C)(OC(C)=O)[C@H](OC(C)=O)[C@@H]2[C@H]1OC(C)=O	> 100	> 100	
C=CCc1c(C)nc(C)nc1N/N=C/C=C/c1ccccc1	> 100	> 100	
COc1ccc(/C=N/n2c(=O)[nH]c3ccccc3c2=O)cc1	> 100	> 100	
CC1(C)C=Cc2c(cc3oc4ccc5c(c4c(=O)c3c2O)C=CC(C)(C)O5)O1	> 100	> 100	
